In EP1247803A2, “Indolinone compounds suitable for modulation of protein kinases” (Sugen, Inc., priority 1996, dated 1998):

Key:
FLK-1 receptor = target: T1, FLK-1 receptor (Mus musculus, UniProt P35918); assay: FLK-1 ELISA (kinase activity of the FLK-1 receptor in FLK-1/NIH3T3 cells, VEGF stimulated); assay type: cell-based
T1 construct: expressed in transfected cells; host or cells: NIH3T3 C7#3
Outline: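 An ELISA using affinity-purified rabbit anti-FLK-1 antiserum on anti-rabbit IgG-coated plates measured VEGF-stimulated FLK-1 kinase activity. NIH3T3 C7#3 cells carrying FLK-1 were serum-starved (0.1% FBS) overnight, then exposed to compound (final 1:200 dilution, 0.5% DMSO) for two hours at 37 °C.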

MET = MET biochemical kinase assay; design: species or system human; concentration or dose not given beside the values
Outline: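 In this format, tyrosine phosphorylation of plate-captured human MET is followed in vitro after compound addition in ATP/divalent-cation buffer, detected by anti-phosphotyrosine-HRP with TMB substrate.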

T1 sequence (P35918 20-1345): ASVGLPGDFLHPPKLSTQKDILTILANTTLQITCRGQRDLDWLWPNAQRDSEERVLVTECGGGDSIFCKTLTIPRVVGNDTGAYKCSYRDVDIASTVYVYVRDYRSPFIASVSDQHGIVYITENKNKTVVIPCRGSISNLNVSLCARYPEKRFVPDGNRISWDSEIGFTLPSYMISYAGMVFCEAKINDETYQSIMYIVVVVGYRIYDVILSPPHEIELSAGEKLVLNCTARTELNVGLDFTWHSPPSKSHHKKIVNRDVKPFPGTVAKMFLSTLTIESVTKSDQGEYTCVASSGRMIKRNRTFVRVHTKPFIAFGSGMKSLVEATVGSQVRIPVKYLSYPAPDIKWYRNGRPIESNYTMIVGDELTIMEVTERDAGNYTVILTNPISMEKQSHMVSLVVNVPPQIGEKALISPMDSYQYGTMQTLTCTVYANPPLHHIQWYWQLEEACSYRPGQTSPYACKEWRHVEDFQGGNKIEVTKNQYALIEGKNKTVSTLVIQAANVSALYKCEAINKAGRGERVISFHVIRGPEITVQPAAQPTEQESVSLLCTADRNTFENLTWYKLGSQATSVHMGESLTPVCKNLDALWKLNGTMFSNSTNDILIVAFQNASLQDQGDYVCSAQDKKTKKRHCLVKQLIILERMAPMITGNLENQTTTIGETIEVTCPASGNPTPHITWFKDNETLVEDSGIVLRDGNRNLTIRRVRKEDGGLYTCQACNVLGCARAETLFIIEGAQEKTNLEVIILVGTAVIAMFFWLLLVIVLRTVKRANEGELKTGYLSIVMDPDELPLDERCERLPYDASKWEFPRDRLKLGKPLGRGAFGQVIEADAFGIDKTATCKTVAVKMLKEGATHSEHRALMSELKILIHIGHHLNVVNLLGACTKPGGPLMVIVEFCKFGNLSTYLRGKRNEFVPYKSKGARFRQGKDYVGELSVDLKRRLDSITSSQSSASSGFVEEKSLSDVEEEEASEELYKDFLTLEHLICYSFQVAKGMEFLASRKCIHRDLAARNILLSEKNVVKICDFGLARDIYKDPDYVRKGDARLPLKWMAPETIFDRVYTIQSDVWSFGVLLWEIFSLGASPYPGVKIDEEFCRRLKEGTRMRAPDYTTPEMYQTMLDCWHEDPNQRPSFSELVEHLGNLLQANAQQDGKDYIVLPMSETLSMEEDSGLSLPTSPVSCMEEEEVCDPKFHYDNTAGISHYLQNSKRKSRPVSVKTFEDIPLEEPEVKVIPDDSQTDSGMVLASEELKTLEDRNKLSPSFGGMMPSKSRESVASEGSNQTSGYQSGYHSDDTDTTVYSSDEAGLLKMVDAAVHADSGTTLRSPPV

SMILES | Fik Kinase %Inhibition (FLK-1 receptor) [%] | Met Kinase % Inhibition (MET) [%]
CCOc1ccccc1C=C1C(=O)Nc2c(Br)cc(Br)cc21 [10717/A02] | 0.1 | 46.1
Cc1c(Br)ccc2c1C(=Cc1cccn1C)C(=O)N2 [10717/C04] | -0.8 | 25.0
Cc1c(Br)ccc2c1C(=Cc1ccc(F)cc1)C(=O)N2 [10717/C05] | -2.3 | 44.6
Cc1c(Br)ccc2c1C(=Cc1c[nH]c3ccccc13)C(=O)N2 [10717/C06] | 7.6 | 44.1
Cc1ccc(C=C2C(=O)Nc3ccc(Br)c(C)c32)s1 [10717/C07] | 1.6 | 16.5
Cc1c(Br)ccc2c1C(=Cc1ccc(Br)cc1)C(=O)N2 [10717/C08] | 7.0 | 27.3
Cc1c(Br)ccc2c1C(=Cc1ccc[nH]1)C(=O)N2 [10717/C09] | 77.1 | 47.7
COc1cccc(O)c1C=C1C(=O)Nc2ccc(Br)c(C)c21 [10717/C10] | -8.0 | 22.8
Cc1[nH]c(C=C2C(=O)Nc3ccc(Br)c(C)c32)c(Br)c1Br [10717/C11] | 4.6 | 71.8
CNS(=O)(=O)c1ccc2c(c1)C(=Cc1ccc(OC)c(OC)c1)C(=O)N2 [10720/D04] | 15.6 | 23.6
CNS(=O)(=O)c1ccc2c(c1)C(=Cc1ccccc1O)C(=O)N2 [10720/D05] | 4.8 | 9.8
CNS(=O)(=O)c1ccc2c(c1)C(=Cc1ccccc1)C(=O)N2 [10720/D06] | 10.1 | 31.8
CNS(=O)(=O)c1ccc2c(c1)C(=Cc1ccc(SC)s1)C(=O)N2 [10720/D07] | 11.8 | 36.2
CNS(=O)(=O)c1ccc2c(c1)C(=Cc1c(C)cc(O)cc1O)C(=O)N2 [10720/D08] | 3.3 | 42.1
CCOc1cc(C=C2C(=O)Nc3ccc(S(=O)(=O)NC)cc32)ccc1O [10720/D09] | 5.8 | 62.8
CNS(=O)(=O)c1ccc2c(c1)C(=Cc1cc(OC)ccc1O)C(=O)N2 [10720/D10] | -6.6 | 51.0
CNS(=O)(=O)c1ccc2c(c1)C(=Cc1ncc[nH]1)C(=O)N2 [10720/D11] | 9.8 | 23.9
O=C1Nc2ccc(S(=O)(=O)Nc3ccc(C(F)(F)F)cc3)cc2C1=Cc1c(F)cc(F)cc1F [10720/E02] | 5.7 | 18.0
COc1cc(O)ccc1C=C1C(=O)Nc2ccc(S(=O)(=O)Nc3ccc(C(F)(F)F)cc3)cc21 [10720/E03] | 34.3 | 54.9
COc1ccc(C=C2C(=O)Nc3ccc(S(=O)(=O)Nc4ccc(C(F)(F)F)cc4)cc32)cc1OC [10720/E04] | 18.4 | 46.7
O=C1Nc2ccc(S(=O)(=O)Nc3ccc(C(F)(F)F)cc3)cc2C1=Cc1ccccc1O [10720/E05] | -13.8 | 55.4
O=C1Nc2ccc(S(=O)(=O)Nc3ccc(C(F)(F)F)cc3)cc2C1=Cc1ccccc1 [10720/E06] | 25.5 | 33.1
CSc1ccc(C=C2C(=O)Nc3ccc(S(=O)(=O)Nc4ccc(C(F)(F)F)cc4)cc32)s1 [10720/E07] | 18.8 | 30.3

SMILES | Fik Kinase %Inhibition (FLK-1 receptor) [%] | Met Kinase % Inhibition (MET) [%]
Cc1cc(O)cc(O)c1C=C1C(=O)Nc2ccc(S(=O)(=O)Nc3ccc(C(F)(F)F)cc3)cc21 [10720/E08] | 2.5 | 55.1
CCOc1cc(C=C2C(=O)Nc3ccc(S(=O)(=O)Nc4ccc(C(F)(F)F)cc4)cc32)ccc1O [10720/E09] | 11.5 | 43.4
COc1ccc(O)c(C=C2C(=O)Nc3ccc(S(=O)(=O)Nc4ccc(C(F)(F)F)cc4)cc32)c1 [10720/E10] | -4.1 | 23.1
O=C1Nc2ccc(S(=O)(=O)Nc3ccc(C(F)(F)F)cc3)cc2C1=Cc1ncc[nH]1 [10720/E11] | 9.3 | -10.4
O=C1Nc2ccc(S(=O)(=O)N3CCOCC3)cc2C1=Cc1c(F)cc(F)cc1F [10720/F02] | 9.1 | 17.8
COc1cc(O)ccc1C=C1C(=O)Nc2ccc(S(=O)(=O)N3CCOCC3)cc21 [10720/F03] | 10.6 | 44.1
COc1ccc(C=C2C(=O)Nc3ccc(S(=O)(=O)N4CCOCC4)cc32)cc1OC [10720/F04] | 10.6 | 43.1
O=C1Nc2ccc(S(=O)(=O)N3CCOCC3)cc2C1=Cc1ccccc1O [10720/F05] | -3.6 | 39.8
O=C1Nc2ccc(S(=O)(=O)N3CCOCC3)cc2C1=Cc1ccccc1 [10720/F06] | 11.9 | 21.9
CSc1ccc(C=C2C(=O)Nc3ccc(S(=O)(=O)N4CCOCC4)cc32)s1 [10720/F07] | 4.6 | 64.6
Cc1cc(O)cc(O)c1C=C1C(=O)Nc2ccc(S(=O)(=O)N3CCOCC3)cc21 [10720/F08] | -4.1 | 36.2
CCOc1cc(C=C2C(=O)Nc3ccc(S(=O)(=O)N4CCOCC4)cc32)ccc1O [10720/F09] | 5.9 | 49.2
COc1ccc(O)c(C=C2C(=O)Nc3ccc(S(=O)(=O)N4CCOCC4)cc32)c1 [10720/F10] | -2.6 | 42.8
O=C1Nc2ccc(S(=O)(=O)N3CCOCC3)cc2C1=Cc1ncc[nH]1 [10720/F11] | 5.0 | 1.6
O=C1Nc2ccc(CCCl)cc2C1=Cc1c(F)cc(F)cc1F [10720/G02] | 5.0 | 20.1
COc1cc(O)ccc1C=C1C(=O)Nc2ccc(CCCl)cc21 [10720/G03] | 2.6 | 42.1
COc1ccc(C=C2C(=O)Nc3ccc(CCCl)cc32)cc1OC [10720/G04] | 2.4 | 5.0
O=C1Nc2ccc(CCCl)cc2C1=Cc1ccccc1O [10720/G05] | -2.9 | 37.0
O=C1Nc2ccc(CCCl)cc2C1=Cc1ccccc1 [10720/G06] | -3.4 | 21.6
CSc1ccc(C=C2C(=O)Nc3ccc(CCCl)cc32)s1 [10720/G07] | 5.1 | 12.9
Cc1cc(O)cc(O)c1C=C1C(=O)Nc2ccc(CCCl)cc21 [10720/G08] | -17.9 | 26.7
CCOc1cc(C=C2C(=O)Nc3ccc(CCCl)cc32)ccc1O [10720/G09] | 2.1 | 49.5
COc1ccc(O)c(C=C2C(=O)Nc3ccc(CCCl)cc32)c1 [10720/G10] | -36.6 | 55.9
